Patent US10131652B2, “Pyrimidinyloxy benzene derivatives as herbicides” (E. I. DU PONT DE NEMOURS AND COMPANY, priority 2014, dated 2018)

How the values were obtained:
Assay type in all cases: in vivo
[1] = system: Italian ryegrass (Lolium multiflorum); assay: Test B pre-/postemergence plant response
Method in brief: (§1)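 Scoring used a 0–100 scale (100 = complete control) by visual comparison with untreated plants after approximately 10 days in the greenhouse. Compounds, in surfactant-containing non-phytotoxic solvent, were sprayed onto soil at planting or onto 2–10 cm seedlings.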

[2] = system: barnyardgrass (Echinochloa crus-galli); assay: Test B pre-/postemergence plant response
Method in brief: as §1

corn (Zea mays) = assay: Test B pre-/postemergence plant response
Method in brief: as §1

[3] = system: giant foxtail (Setaria faberii); assay: Test B pre-/postemergence plant response
Method in brief: as §1

kochia (Kochia scoparia) = assay: Test B pre-/postemergence plant response
Method in brief: as §1

[4] = system: pigweed (Amaranthus retroflexus); assay: Test B pre-/postemergence plant response
Method in brief: as §1

[5] = system: ragweed (common ragweed, Ambrosia elatior); assay: Test B pre-/postemergence plant response
Method in brief: as §1

[6] = system: wheat (Triticum aestivum); assay: Test B pre-/postemergence plant response
Method in brief: as §1

[7] = system: blackgrass (Alopecurus myosuroides); assay: Test B postemergence plant response
Method in brief: (§2)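 Pots, loam soil + sand; postemergence treatment at 1–2 leaf stage, 2–10 cm; greenhouse ~10 d; visual injury score 0 (none) to 100 (complete control) relative to untreated controls.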

[8] = system: galium (catchweed bedstraw, Galium aparine); assay: Test B postemergence plant response
Method in brief: as §2

[9] = system: barnyardgrass (Echinochloa crus-galli); assay: Test C flooded paddy test plant response; settings: Flood, 250 g ai/ha; scale of 0 to 100 where 0 is no effect and 100 is complete control; 13 to 15 days
Method in brief: (§3)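 Plants grown to the 2-leaf stage; pots flooded to 3 cm above soil, test compounds applied directly to paddy water, depth maintained throughout. Greenhouse for 13 to 15 days, then visual rating versus controls on a 0–100 scale (0 no effect, 100 complete control).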

[10] = system: ducksalad (Heteranthera limosa); assay: Test C flooded paddy test plant response; settings: Flood, 250 g ai/ha; scale of 0 to 100 where 0 is no effect and 100 is complete control; 13 to 15 days
Method in brief: as §3

rice (Oryza sativa) = assay: Test C flooded paddy test plant response; settings: Flood, 250 g ai/ha; scale of 0 to 100 where 0 is no effect and 100 is complete control; 13 to 15 days
Method in brief: as §3

[11] = system: small-flower umbrella sedge (Cyperus difformis); assay: Test C flooded paddy test plant response; settings: Flood, 250 g ai/ha; scale of 0 to 100 where 0 is no effect and 100 is complete control; 13 to 15 days
Method in brief: as §3

[12] = 125 g ai/ha, postemergence, 0 to 100 scale, 0 no effect, 100 complete control
[13] = Postemergence, 500 g ai/ha, 0 to 100 scale (0 no effect, 100 complete control)
[14] = Preemergence, 125 g ai/ha, 0 to 100 scale where 0 is no effect and 100 is complete control
[15] = Preemergence, 500 g ai/ha, 0 to 100 scale where 0 is no effect and 100 is complete control
[16] = Postemergence, 1000 g ai/ha, 0 to 100 scale (0 no effect, 100 complete control)
[17] = Preemergence, 1000 g ai/ha, 0 to 100 scale (0 no effect, 100 complete control)
[18] = 31 g ai/ha, Postemergence, 0 to 100 scale, 0 no effect, 100 complete control
[19] = 31 g ai/ha, Preemergence, 0 to 100 scale where 0 is no effect and 100 is complete control
[20] = Preemergence, 125 g ai/ha, 0 to 100 scale (0 no effect, 100 complete control)

In the case of `Cn1cc(-c2ccccc2Oc2ncc(Cl)cn2)nn1` [Compound 51], the “Plant response rating, Ryegrass, Italian” value [1, 12] is reported as 0, the “Plant response rating, Ryegrass, Italian” value [1, 13] is reported as 0 and the “Plant response rating, Ryegrass, Italian” value [1, 14] is reported as 0. For the same compound, the “Plant response rating, Ryegrass, Italian” value [1, 15] was 0, the “Plant response rating, Barnyardgrass” value [2, 12] was 0 and the “Plant response rating, Barnyardgrass” value [2, 13] was 0. For the same compound, the “Plant response rating, Barnyardgrass” value [2, 14] was 0, the “Plant response rating, Barnyardgrass” value [2, 15] was 10 and the “Plant response rating, Corn” value (corn (Zea mays); [12]) was 0. For the same compound, the “Plant response rating, Corn” value (corn (Zea mays); [13]) was 0, the “Plant response rating, Foxtail, Giant” value [3, 12] was 10 and the “Plant response rating, Foxtail, Giant” value [3, 13] was 50. For the same compound, the “Plant response rating, Foxtail, Giant” value [3, 14] was 10, the “Plant response rating, Foxtail, Giant” value [3, 15] was 60 and the “Plant response rating, Kochia” value (kochia (Kochia scoparia); [12]) was 70. The “Plant response rating, Kochia” value (kochia (Kochia scoparia); [13]) was 100, the “Plant response rating, Kochia” value (kochia (Kochia scoparia); [14]) was 10 and the “Plant response rating, Kochia” value (kochia (Kochia scoparia); [15]) was 70. For the same compound, the “Plant response rating, Pigweed” value [4, 12] was 70, the “Plant response rating, Pigweed” value [4, 13] was 80 and the “Plant response rating, Pigweed” value [4, 14] was 50. For the same compound, the “Plant response rating, Pigweed” value [4, 15] was 100, the “Plant response rating, Ragweed” value [5, 12] was 20 and the “Plant response rating, Ragweed” value [5, 13] was 60. The “Plant response rating, Ragweed” value [5, 14] was 50, the “Plant response rating, Ragweed” value [5, 15] was 50 and the “Plant response rating, Wheat” value [6, 12] was 0. The “Plant response rating, Wheat” value [6, 13] was 10, the “Plant response rating, Blackgrass” value [7, 12] was 0 and the “Plant response rating, Blackgrass” value [7, 13] was 50. For the same compound, the “Plant response rating, Galium” value [8, 12] was 60, the “Plant response rating, Galium” value [8, 13] was 90 and the “Barnyardgrass plant response rating” value [9] was 0. For the same compound, the “Ducksalad plant response rating” value [10] was 30, the “Rice plant response rating” value (rice (Oryza sativa)) was 0 and the “Sedge, Umbrella plant response rating” value [11] was 0.

With `Clc1cnc(Oc2ccccc2-c2ccc(Cl)nn2)nc1` [Compound 186] the “Plant response rating, Ryegrass, Italian” value [1, 16] was 0, the “Plant response rating, Ryegrass, Italian” value [1, 17] was 0 and the “Plant response rating, Barnyardgrass” value [2, 16] was 0. The “Plant response rating, Barnyardgrass” value [2, 17] was 20, the “Plant response rating, Corn” value (corn (Zea mays); [16]) was 0 and the “Plant response rating, Foxtail, Giant” value [3, 16] was 30. For the same compound, the “Plant response rating, Foxtail, Giant” value [3, 17] was 100, the “Plant response rating, Kochia” value (kochia (Kochia scoparia); [16]) was 30 and the “Plant response rating, Kochia” value (kochia (Kochia scoparia); [17]) was 100. For the same compound, the “Plant response rating, Pigweed” value [4, 16] was 20, the “Plant response rating, Pigweed” value [4, 17] was 100 and the “Plant response rating, Ragweed” value [5, 16] was 50. The “Plant response rating, Ragweed” value [5, 17] was 70, the “Plant response rating, Wheat” value [6, 16] was 0 and the “Plant response rating, Blackgrass” value [7, 16] was 20. For the same compound, the “Plant response rating, Galium” value [8, 16] was 20, the “Barnyardgrass plant response rating” value [9] was 0 and the “Ducksalad plant response rating” value [10] was 0. For the same compound, the “Rice plant response rating” value (rice (Oryza sativa)) was 0 and the “Sedge, Umbrella plant response rating” value [11] was 0.

For `Brc1cnc(Oc2ccccc2-c2cc(Br)no2)nc1` [Compound 119], the “Plant response rating, Ryegrass, Italian” value [1, 18] was 0, the “Plant response rating, Ryegrass, Italian” value [1, 19] was 0 and the “Plant response rating, Ryegrass, Italian” value [1, 12] was 0. The “Plant response rating, Barnyardgrass” value [2, 18] was 0, the “Plant response rating, Barnyardgrass” value [2, 19] was 0 and the “Plant response rating, Barnyardgrass” value [2, 12] was 0. For the same compound, the “Plant response rating, Barnyardgrass” value [2, 14] was 0, the “Plant response rating, Corn” value (corn (Zea mays); [18]) was 0 and the “Plant response rating, Corn” value (corn (Zea mays); [12]) was 0. For the same compound, the “Plant response rating, Foxtail, Giant” value [3, 18] was 0, the “Plant response rating, Foxtail, Giant” value [3, 19] was 0 and the “Plant response rating, Foxtail, Giant” value [3, 12] was 10. The “Plant response rating, Foxtail, Giant” value [3, 14] was 50, the “Plant response rating, Kochia” value (kochia (Kochia scoparia); [18]) was 0 and the “Plant response rating, Kochia” value (kochia (Kochia scoparia); [19]) was 0. The “Plant response rating, Kochia” value (kochia (Kochia scoparia); [12]) was 30, the “Plant response rating, Kochia” value (kochia (Kochia scoparia); [14]) was 10 and the “Plant response rating, Pigweed” value [4, 18] was 40. For the same compound, the “Plant response rating, Pigweed” value [4, 19] was 0, the “Plant response rating, Pigweed” value [4, 12] was 80 and the “Plant response rating, Ragweed” value [5, 18] was 10. For the same compound, the “Plant response rating, Ragweed” value [5, 19] was 0, the “Plant response rating, Ragweed” value [5, 12] was 10 and the “Plant response rating, Wheat” value [6, 18] was 0. The “Plant response rating, Wheat” value [6, 12] was 0, the “Plant response rating, Blackgrass” value [7, 18] was 0 and the “Plant response rating, Blackgrass” value [7, 12] was 0. For the same compound, the “Plant response rating, Galium” value [8, 18] was 30, the “Plant response rating, Galium” value [8, 12] was 60 and the “Barnyardgrass plant response rating” value [9] was 0. The “Ducksalad plant response rating” value [10] was 40, the “Rice plant response rating” value (rice (Oryza sativa)) was 0 and the “Sedge, Umbrella plant response rating” value [11] was 40.

For `FC(F)(F)c1ccnc(-c2c(Cl)cccc2Oc2ncc(Cl)cn2)c1` [Compound 159], the “Plant response rating, Ryegrass, Italian” value [1, 12] was 0, the “Plant response rating, Ryegrass, Italian” value [1, 13] was 0 and the “Ryegrass, Italian plant response rating” value [1, 20] was 0. For the same compound, the “Plant response rating, Ryegrass, Italian” value [1, 15] was 0, the “Plant response rating, Barnyardgrass” value [2, 12] was 0 and the “Plant response rating, Barnyardgrass” value [2, 13] was 20. For the same compound, the “Barnyardgrass plant response rating” value [2, 20] was 0, the “Plant response rating, Barnyardgrass” value [2, 15] was 60 and the “Plant response rating, Corn” value (corn (Zea mays); [12]) was 20. For the same compound, the “Plant response rating, Corn” value (corn (Zea mays); [13]) was 30, the “Plant response rating, Foxtail, Giant” value [3, 12] was 0 and the “Plant response rating, Foxtail, Giant” value [3, 13] was 70. For the same compound, the “Foxtail, Giant plant response rating” value [3, 20] was 20, the “Plant response rating, Foxtail, Giant” value [3, 15] was 90 and the “Plant response rating, Kochia” value (kochia (Kochia scoparia); [12]) was 20. For the same compound, the “Plant response rating, Kochia” value (kochia (Kochia scoparia); [13]) was 80, the “Kochia plant response rating” value (kochia (Kochia scoparia); [20]) was 0 and the “Plant response rating, Kochia” value (kochia (Kochia scoparia); [15]) was 30. The “Plant response rating, Pigweed” value [4, 12] was 90, the “Plant response rating, Pigweed” value [4, 13] was 100 and the “Pigweed plant response rating” value [4, 20] was 40. For the same compound, the “Plant response rating, Pigweed” value [4, 15] was 100, the “Plant response rating, Ragweed” value [5, 12] was 0 and the “Plant response rating, Ragweed” value [5, 13] was 0. The “Ragweed plant response rating” value [5, 20] was 0, the “Plant response rating, Ragweed” value [5, 15] was 0 and the “Plant response rating, Wheat” value [6, 12] was 20. The “Plant response rating, Wheat” value [6, 13] was 20, the “Plant response rating, Blackgrass” value [7, 12] was 0 and the “Plant response rating, Blackgrass” value [7, 13] was 30. For the same compound, the “Plant response rating, Galium” value [8, 12] was 70, the “Plant response rating, Galium” value [8, 13] was 100 and the “Barnyardgrass plant response rating” value [9] was 0. The “Ducksalad plant response rating” value [10] was 0, the “Rice plant response rating” value (rice (Oryza sativa)) was 0 and the “Sedge, Umbrella plant response rating” value [11] was 0.
